The source of these data is paper PMC8717366, “Synthesis and Pharmacological Characterization of Visabron, a Backbone Cyclic Peptide Dual Antagonist of α4β1 (VLA-4)/α9β1 Integrin for Therapy of Multiple Sclerosis” (JACS Au, 2021).

Broadly, the half-life is the time in which the quantity being followed falls by half. High values mean slow loss, low ones fast loss. The AUC is concentration integrated over time. As a reminder, the clearance is the rate of elimination divided by the concentration. High values mean a high capacity for elimination, low ones a low capacity for elimination.

A short description of data set [1]: Pharmacokinetics in rats after single i.v. dose. The format is in vivo, Male Wistar rats. The procedure:
Pharmacokinetics of Visabron c (4-4) following iv injection:
Animals-Male Wistar rats (275−300 g, purchased from Harlan, Israel), were used for the surgical procedure. An indwelling cannula was implanted into the right jugular vein, and exteriotrated at the dorsal neck to enable serial systemic blood sampling. After completion of the surgical procedure, the animals were transferred to cages to recover overnight (12−18 h). The animals had free access to water and food during the recovery period and throughout the entire experiment. All surgical and experimental procedures were approved by the Animal Experimental Ethics Committee of the Hebrew University, Hadassah Medical School, Jerusalem. […]
PK Study-A single dose of Visabron c(4-4) in sterile water (300 μL of a 0.514 mg/mL solution, which was equivalent to a final dose of 0.514 mg/kg) was administered i.v. via the indwelling jugular cannula to each rat. Following dose administration, blood samples were taken at pre -dose, 10, 15, 30, 60, 90 and 130-min from the onset of the drug administration (time zero) via the right jugular vein. Approximately […]
350 μL of whole blood was removed, and placed in sodium-heparin containing tubes, and immediately placed in wet ice. Blood was centrifuged at 5322 g for 10 min and a 150 μL aliquot of plasma was transferred to fresh centrifuge tubes and stored at −20 °C pending analysis. PK analysis was performed using standard non-compartmental analysis models in Phoenix WinNonlin®.
Bioanalytical Method for the Detection of Vis-c(4-4) in Rat Plasma: Plasma samples (150 μL) were spiked with metoprolol (20 μL, 10 μg/mL) as an internal standard. 200 μL of ACN was added to each sample and vortex-mixed for 1 min. The samples were then centrifuged (14635 g, 10 min), and the supernatant was transferred to fresh glass tubes and evaporated to dryness (Vacuum Evaporation System, Labconco, Kansas City, MO, USA). The glass tubes were reconstituted in 80 μL of mobile phase and centrifuged a second time (14635 g, 10 min). The amount of the compounds was determined using an HPLC−MS Waters 2695 Separation Module, equipped with a Micromass ZQ detector. The resulting solution was injected (10 μL) into the HPLC sy stem. The system was conditioned as follows :
Xterra MS C18, 3.5 µm, 100A, 100 x 2.1 mm column (Waters), an isocratic mobile phase of ACN : water supplemented with 0.1% formic acid (15:85, v/v) and a flow rate of 0.2 mL/ min at 35 °C was used. The limit of quantification the peptide was 25 ng/mL. Calibration curve was prepared by spiking the standard working stock solution with 15 μL of the different concentrations, 20 μL IS (10 μg/ mL) and 135 μl blank rat plasma in a centrifuge tube on the analysis day . […]
range of 25 ng/Ml to 2.5 μg/mL.
Blood cell counting and biochemistry analyzes : Male C57BL/6 mice were injected intravenously with 0.2 ml of peptide in a dose of 500 mg/kg. No immediate toxicity symptoms were measured a nd thereafter, acute tolerability was observed. Since the hematopoietic system is one of the most sensitive parameters to assess the toxicity of drugs in humans and animals, tail vein blood samples were taken from control (n=3) and 250 mg/kg Visabron c (4-4) injected mice (n=5), after 24 hours from injection and submitted for hematocrit cell counting and biochemical analysis. […]
blood count and electrolytes of special importance are normal liver (ALP, alkaline phosphatase; ALT, alanine transaminase and AST, aspartate transaminase) functions and normal kidney (creatinine and blood urea nitrogen) functions, indicating sufficient organ integrity at the end of the experimental period. The data obtained was similar to hematological parameters reported for this mice strain5, and clearly indicates lack of differences on kidney and liver parameters between the two mice groups.
Visabron c (4-4) safety by in vitro evaluation using PhosphoSens - CSox based kinase assays:
A powerful method was used to measure the activity of recombinant protein kinases using a […]

The conditions of data set [2]: human, in vivo; cited from earlier work.

Where two headings read alike, the source gives them in different places. Numbered stars: 1 amine (or outer) side, 2 acyl side, 3 side chain; on linkers, the order of the positions; unused ones are H or OH. Bridge positions count the residues as written; N and C are the ends. Square brackets hold non-standard residues; d marks the D form. Peptide text beside a SMILES is read from it. CO = O=C([*:1])[*:2]; Nlys = NCCCCNCC(=O)O

With `CSCC[C@@H]1NC(=O)[C@H]([C@@H](C)O)NC(=O)CN(C(=O)[C@@H](N)CCCCN)CCCCNC(=O)NCCCCN(CC(=O)N[C@@H](CC(C)C)C(N)=O)C(=O)[C@H](CC(=O)O)NC(=O)[C@H](CC(C)C)NC1=O` [visabron c (4–4)] (H-K[Nlys]TMLD[Nlys]L-NH2; linker 2-7 via CO), the half-life in data set [1] (rat, in vivo, iv, 0.515 mg/kg, single i.v. dose 0.515 mg/kg, n = 4) was found to be 24 min. Moreover, the AUC in data set [1] (rat, in vivo, iv, plasma, single i.v. dose 0.515 mg/kg, n = 4) is 777 ng·h/mL. The Vd in data set [1] (rat, in vivo, iv, read-out: volume of distribution) is 0.39 L/kg; in data set [1] (rat, in vivo, iv, single i.v. dose 0.515 mg/kg, n = 4, Table 3, read-out: Vd), 0.381 ± 0.029 L/kg. The molecule also showed a clearance in data set [1] (rat, in vivo, iv, single i.v. dose 0.515 mg/kg, n = 4, noncompartmental analysis) of 11.1 ± 0.5 mL/min/kg. Besides, in data set [1] (single i.v. dose 0.515 mg/kg, n = 4, 0.515 mg/kg), the t1/2 is 23.8 ± 1.6 min.
Consider “natalizumab: clinical-grade monoclonal antibody anti-α4β1 produced by Biogen Co. [reference compound]”, for which, in data set [2], the “Multiple sclerosis patients with anti-natalizumab-neutralizing antibodies” value is listed as 6–9% and the “Patients with neutralizing antibodies toward natalizumab that cause loss of drug efficacy” value was “about 6%”.
